The results in this text go back to patent US11339169B2, “P2X3 and/or P2X2/3 compounds and methods” (Asana BioSciences, LLC, priority 2016, dated 2022).

SMILES strings stand for the structures. Several values for one entry are separate records, joined by “and”; a condition that tells them apart may be missing. Identical values can stand only once.

By IC50 is commonly meant the concentration that inhibits the measured activity by half.

One experiment concerns the target T1, hP2X3 (Homo sapiens, UniProt P56373).
T1 construct: host or cells: HEK (hP2X3-HEK)
T1 sequence (P56373 1-397): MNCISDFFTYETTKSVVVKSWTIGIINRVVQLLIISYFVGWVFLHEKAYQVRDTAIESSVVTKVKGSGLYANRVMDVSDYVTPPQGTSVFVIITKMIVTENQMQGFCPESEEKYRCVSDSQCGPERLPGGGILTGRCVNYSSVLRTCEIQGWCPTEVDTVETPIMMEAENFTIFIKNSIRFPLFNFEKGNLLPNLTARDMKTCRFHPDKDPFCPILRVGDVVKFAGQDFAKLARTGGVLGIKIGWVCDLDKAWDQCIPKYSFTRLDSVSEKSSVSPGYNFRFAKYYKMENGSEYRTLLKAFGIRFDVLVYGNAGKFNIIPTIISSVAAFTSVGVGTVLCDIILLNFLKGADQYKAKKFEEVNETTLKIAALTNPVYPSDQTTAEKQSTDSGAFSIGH
Description: FLIPR intracellular calcium assay, hP2X3. It counts as cell-based. To be noted: human P2X3-HEK cells, agonist at EC75. Put shortly:
(§1)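 HEK (hP2X3) or tetracycline-inducible TRex293 (hP2X2/3) cells loaded with Calcium 4 dye, then given 11-point half-log compound dilutions for 15 min at room temperature in HBSS/HEPES, pH 7.4, with 1.8 mM CaCl2. Cells challenged with agonist at EC75; IC50 derived from fluorescence inhibition versus no-compound wells.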
(Calcium assays in cells follow changes in intracellular calcium, usually with a dye or a luminescent sensor.)

The subject of a further experiment is Male Sprague Dawley rats. Description: In vivo thermal hyperalgesia (Hargreaves test), CFA-injected rat. To be noted: 30 mg/kg po, at 1 hour, p<0.01. How it is done: Male Sprague Dawley rats of young adult age group and body weight range of 180-200 g were included in the study. Animals were housed under a 12 h light/dark cycle with food and water ad libitum. The animals underwent acclimatization with the observation chambers of the Hargreaves' apparatus for two days, twice daily for 45-60 min each time prior to initiation of study. Animals were also habituated to the apparatus for 15-30 min before each testing. Thermal hyperalgesia was assessed using the rat plantar test (Ugo Basile, Italy) following a modified method of Hargreaves (1988), “A new and sensitive method for measuring thermal nociception in cutaneous hyperalgesia”, Pain 32: 77-88, the entire disclosure of which is herein incorporated by reference. […]
Following basal readout of PWL values to the thermal stimulus (PWL measurements described previously), 50 μL of complete Freund's Adjuvant (CFA—1 mg/mL suspension—Sigma, USA, Cat #F5881) was injected subcutaneously into the plantar surface of the right hind (ipsilateral) paw of animals under light isoflurane anesthesia. […]
Next day (day 1) after 20-22 h of CFA injection, PWL of animals were recorded. Mean of three readings are taken as PWL recording of ipsilateral paw of each animal for pre and post CFA basal readout. […]

A further experiment has as its target T2, hP2X2/3 (Homo sapiens, UniProt P56373+Q9UBL9).
T2 construct: host or cells: TRex293 (hP2X2/3-TRex293), doxycycline-induced
T2 sequence (P56373 1-397): T1 sequence (P56373 1-397)
T2 sequence (Q9UBL9 1-471): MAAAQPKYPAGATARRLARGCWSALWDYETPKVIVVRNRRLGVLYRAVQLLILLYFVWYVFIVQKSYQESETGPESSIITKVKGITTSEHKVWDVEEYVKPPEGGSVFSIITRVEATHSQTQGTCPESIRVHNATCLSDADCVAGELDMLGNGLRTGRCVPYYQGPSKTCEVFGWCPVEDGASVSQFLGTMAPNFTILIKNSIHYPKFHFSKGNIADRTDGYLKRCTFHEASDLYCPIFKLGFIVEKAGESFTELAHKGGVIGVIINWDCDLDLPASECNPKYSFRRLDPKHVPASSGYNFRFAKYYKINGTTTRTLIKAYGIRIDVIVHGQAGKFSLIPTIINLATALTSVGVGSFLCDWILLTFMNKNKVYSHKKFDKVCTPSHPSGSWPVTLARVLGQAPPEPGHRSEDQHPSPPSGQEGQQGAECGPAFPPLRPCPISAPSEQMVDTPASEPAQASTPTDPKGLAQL
Description: FLIPR intracellular calcium assay, hP2X2/3. It is filed as cell-based. The following applies: human P2X2/3-TRex293 cells, agonist at EC75. A digest of the protocol:
as §1

For `CCC(C)n1ncc2nc(N3CCN(C(N)=O)CC3)nc(N[C@@H](c3cnc4ccccc4c3)C3CC3)c21` (stereo partly drawn) [Example 10, 4-{1-sec-Butyl-7-[((R)-cyclopropyl-quinolin-3-yl-methyl)-amino]-1H-pyrazolo[4,3-d]pyrimidin-5-yl}-piperazine-1-carboxylic Acid Amide], the IC50 at hP2X3 and at hP2X2/3 was 1 to 100 nM in each case. Further, the “reversal to pre-treatment PWL value” with Male Sprague Dawley rats was found to be 32%.
Consider `CC(=O)N1CCN(c2nc(N[C@H](C)c3cnc4ccccc4c3)c3nn(C(C)C)c(C)c3n2)CC1` [Example 102], for which the IC50 was 1 to 100 nM on hP2X3 and above 10000 nM on hP2X2/3.
As for `CC(=O)N1CCN(c2nc(N[C@H](C)c3cnc4ccccc4c3)c3nn(C(C)C)c(C#N)c3n2)CC1` [Example 103], the IC50 is 1 to 100 nM on hP2X3 and above 10000 nM at hP2X2/3.
Taken in the same sequence, the figures for `CC(=O)N1CCN(c2nc(N[C@H](C)c3cnc4ccccc4c3)c3c(n2)c(C#N)nn3C(C)C)CC1` [Example 104] were 1 to 100 nM and above 10000 nM.
Taken in the same sequence, the figures for `CCC(C)n1nc2c(N[C@H](C)c3cnc4ccccc4c3)nc(N3CCN(C(C)=O)CC3)nc2c1Br` (stereo partly shown) [Example 105] were 1 to 100 nM and 1000 to 10000 nM.
Take `CCC(C)n1nc2c(N[C@H](C)c3cnc4ccccc4c3)nc(N3CCN(C(C)=O)CC3)nc2c1C#N` (stereo partly shown) [Example 106]: the IC50 at hP2X3 is 1 to 100 nM; on hP2X2/3, 1000 to 10000 nM.
Regarding `CCC(C)n1ncc2nc(N3CCN(S(N)(=O)=O)CC3)nc(N[C@@H](c3cnc4ccccc4c3)C3CC3)c21` (stereo partly drawn) [Example 108, 4-{1-sec-Butyl-7-[((R)-cyclopropyl-quinolin-3-yl-methyl)-amino]-1H-pyrazolo[4,3-d]pyrimidin-5-yl}-piperazine-1-sulfonic acid amide], the IC50 lay in the range of 1 to 100 nM at hP2X3 and 1000 to 10000 nM on hP2X2/3.
Turning to `CCC(C)n1ncc2nc(N3CCN(C(N)=NC#N)CC3)nc(N[C@@H](c3cnc4ccccc4c3)C3CC3)c21` (stereo partly drawn) [Example 110, 4-(1-sec-butyl-7-{[(R)-cyclopropyl(quinolin-3-yl)methyl]amino}-1H-pyrazolo[4,3-d]pyrimidin-5-yl)-N′-cyanopiperazine-1-carboximidamide], the IC50 on hP2X3 and on hP2X2/3 was 1 to 100 nM in each case.
`CCC(C)n1ncc2nc(N3CCN(/C(N)=N\C#N)CC3)nc(N[C@H](C)c3cnc4ccccc4c3)c21` (stereo partly drawn) [Example 111, 4-(1-sec-butyl-7-{[(R)-methyl(quinolin-3-yl)methyl]amino}-1H-pyrazolo[4,3-d]pyrimidin-5-yl)-N′-cyanopiperazine-1-carboximidamide]: the IC50 at hP2X3 and on hP2X2/3 was 1 to 100 nM in each case.
As to `CCC(C)n1ncc2nc(N3CCN(C(=N)N)CC3)nc(N[C@@H](c3cnc4ccccc4c3)C3CC3)c21` (stereo partly drawn) [Example 112, 4-{1-sec-Butyl-7-[((R)-cyclopropyl-quinolin-3-yl-methyl)-amino]-1H-pyrazolo[4,3-d]pyrimidin-5-yl}-piperazine-1-carboxamidine], the IC50 on hP2X3 and on hP2X2/3 was 1 to 100 nM throughout.
As for `CCC(C)n1ncc2nc(-c3cnn(CCO)c3)nc(N[C@H](C)c3cnc4ccccc4c3)c21` (stereo partly drawn) [Example 113, 2-{4-[1-sec-Butyl-7-((R)-1-quinolin-3-yl-ethylamino)-1H-pyrazolo[4,3-d]pyrimidin-5-yl]-pyrazol-1-yl}-ethanol], the IC50 was in the range of 1 to 100 nM at hP2X3 and 1000 to 10000 nM at hP2X2/3.
Take `CCC(C)n1ncc2nc(-c3cnn(C)c3)nc(N[C@@H](c3cnc4ccccc4c3)C3CC3)c21` (stereo partly shown) [Example 114]: the IC50 at hP2X3 and at hP2X2/3 was 1 to 100 nM throughout.
Take `CCC(C)n1ncc2nc(-c3cnn(CC)c3)nc(N[C@@H](c3cnc4ccccc4c3)C3CC3)c21` (stereo partly shown) [Example 115]: the figures for the IC50 at hP2X3 and at hP2X2/3 were 1 to 100 nM and 100 to 1000 nM, respectively.
Turning to `CCC(C)n1ncc2nc(-c3cnn(CCF)c3)nc(N[C@@H](c3cnc4ccccc4c3)C3CC3)c21` (stereo partly shown) [Example 116], the IC50 at hP2X3 and at hP2X2/3 was 1 to 100 nM each time.
As for `Cn1cc(-c2nc(N[C@@H](c3cnc4ccccc4c3)C3CC3)c3c(cnn3C3CCOCC3)n2)cn1` [Example 117], the IC50 on hP2X3 was 1 to 100 nM; at hP2X2/3, 1000 to 10000 nM.
Regarding `CCC(C)n1ncc2nc(C3CCN(C(N)=O)CC3)nc(N[C@@H](c3cnc4ccccc4c3)C3CC3)c21` (stereo partly shown) [Example 118], the IC50 on hP2X3 was in the range of 1 to 100 nM; on hP2X2/3, 1000 to 10000 nM.
In the case of `CCC(C)n1ncc2nc(-c3cn[nH]c3)nc(N[C@@H](c3cnc4ccccc4c3)C3CC3)c21` (stereo partly shown) [Example 119], the IC50 on hP2X3 lay in the range of 1 to 100 nM; on hP2X2/3 it was 1000 to 10000 nM.
For `CCC(C)n1ncc2nc(-c3cnn(CCO)c3)nc(N[C@@H](c3cnc4ccccc4c3)C3CC3)c21` (stereo partly shown) [Example 121], the IC50 lay within 1 to 100 nM on hP2X3 and 100 to 1000 nM at hP2X2/3.
Taken in the same sequence, the figures for `CC[C@H](C)n1ncc2nc(-c3cnn(CCF)c3)nc(NC(CO)c3cnc4ccccc4c3)c21` (stereo partly shown) [Example 122] were 1 to 100 nM and 100 to 1000 nM.
For the compound `CCC(C)n1ncc2nc(-c3cnn(CCF)c3)nc(N[C@H](C)c3cn4ccc(C)cc4n3)c21` (stereo partly shown) [Example 123], the IC50 is 1 to 100 nM at hP2X3; 1000 to 10000 nM and 100 to 1000 nM on hP2X2/3.
On to `CCC(C)n1ncc2nc(C(=O)NC3CC3)nc(N[C@@H](c3cnc4ccccc4c3)C3CC3)c21` (stereo partly drawn) [Example 124, 1-sec-Butyl-7-[((R)-cyclopropyl-quinolin-3-yl-methyl)-amino]-1H-pyrazolo[4,3-d]pyrimidine-5-carboxylic Acid Cyclopropylamide], for which the IC50 at hP2X3 was 1 to 100 nM; at hP2X2/3, 1000 to 10000 nM.
Regarding `CCC(C)n1ncc2nc(-c3nnc(C)o3)nc(N[C@@H](c3cnc4ccccc4c3)C3CC3)c21` (stereo partly drawn) [Example 125, [1-sec-Butyl-5-(5-methyl-[1,3,4]oxadiazol-2-yl)-1H-pyrazolo[4,3-d]pyrimidin-7-yl]-((R)-cyclopropyl-quinolin-3-yl-methyl)-amine], the IC50 was 1 to 100 nM at hP2X3 and 1000 to 10000 nM at hP2X2/3.
With `CCC(C)n1ncc2nc(-n3cc(C(N)=O)nn3)nc(N[C@@H](c3cnc4ccccc4c3)C3CC3)c21` (stereo partly drawn) [Example 126, 1-{1-sec-Butyl-7-[((R)-cyclopropyl-quinolin-3-yl-methyl)-amino]-1H-pyrazolo[4,3-d]pyrimidin-5-yl}-1H-[1,2,3]triazole-4-carboxylic Acid Amide], the results for the IC50 on hP2X3 and on hP2X2/3 were 1 to 100 nM and 1000 to 10000 nM, respectively.
`CCC(C)n1ncc2nc(-c3cccnn3)nc(N[C@@H](c3cnc4ccccc4c3)C3CC3)c21` (stereo partly drawn) [Example 127, (1-sec-Butyl-5-pyridazin-3-yl-1H-pyrazolo[4,3-d]pyrimidin-7-yl)-((R)-cyclopropyl-quinolin-3-yl-methyl)-amine]: the figures for the IC50 at hP2X3 and on hP2X2/3 were 1 to 100 nM and 1000 to 10000 nM, respectively.
